Reference: patent US11656230B2, “Method for predicting cancer sensitivity” (Eutropics Pharmaceuticals, Inc., priority 2013, dated 2023)

Legend:
[1] = target: Bcl-XL/BIM-BH3 heterodimer (Homo sapiens, UniProt Q07817); test: ELISA: inhibition of HSBXB binding to non-covalent Bcl-XL-GST/BIM-BH3 heterodimer by ABT-263; conditions: heterodimers formed with BIM peptide on Glutathione-coated ELISA plates; compound added after peptides and before monoclonal antibody; FIG. 15
Protocol: The compound was added to the ELISA plates after addition of peptides and before adding the monoclonal antibody. The Bib BH3 domain peptide was added as a negative control.
ABT-263 disrupts Bcl-2/Bcl-xL interactions with pro-death proteins (e.g., Bim), leading to the initiation of apoptosis within 2 hours post treatment (Tse et al., 2008).

[2] = target: Bcl-XL/BIM heterodimer in SKBR3 cells (Homo sapiens, UniProt Q07817); test: Near-infrared imaging of HSBXB binding in paraformaldehyde fixed cells incubated with ABT-263; format: cell-based; conditions: different concentrations of ABT-263, FIG. 17
From the text: IRDye 800CW goat anti-mouse antibody was used for detecting the heterodimer specific mouse monoclonal antibody and IRDye 800CW Goat anti-rabbit antibody was used to detect the commercial Bcl-XL rabbit monoclonal antibody. […] The detection system uses near-infrared (IR) fluorophores (670-1100 nm) that have a distinct advantage over visible dyes, in that very low background fluorescence at longer wavelengths provides an excellent signal-to-noise ratio. […] In this system antibodies labeled with IR dyes at different wavelengths are used for detection of multiple targets. The imager simultaneously detects two distinct wavelengths. A scanning optical assembly carries two laser diodes that generate excitation light at 680 and 780 nm, as well as two avalanche photodiodes, which detect emitted fluorescence at 720 and 820 nm. […] IRDye 800CW goat anti-mouse antibody was used for detecting the heterodimer specific mouse monoclonal antibody and IRDye 800CW Goat anti-rabbit antibody was used to detect the commercial Bcl-XL rabbit monoclonal antibody.

[3] = target: Bcl-xL/Bim heterodimer in JEKO-1 cells (Homo sapiens, UniProt Q07817); test: Flow cytometry (FACS), intracellular staining with HSBXB antibody; format: cell-based; conditions: 10 uM, 3 hours on ice, clone 32 at 10 ug/ml, FIG. 18
From the text: As a positive control we pretreated with the Bim BH3 peptide at a concentration that achieve saturated binding to the endogenous Bcl-XL. […] To enhance staining and to establish a positive control we added saturating amount of the Bim BH3 peptide to partially lysed cells. As a negative control we pretreated with BH3 mimetic compound, ABT 263 to displace Bim from Bcl-xL. In this experiment 5×10e6 JEKO 1 cells were suspended in Newmeyer buffer (Ryan et al Proc Natl Acad Sci USA 2010; 107:12895-900), digitonin (Sigma-Aldrich, St Louis Mo.) and treated with 100 uM Bim BH3 peptide; or ABT263 compound at 10 uM; or not treated. Cells were incubated on ice for 3 hours, and then washed and treated with clone 32 at 10 ug/ml for 20 minutes, washed again and stained with secondary goat anti-mouse IgG alexa-488. An IgG-2A isotype control was also prepared and run in parallel. Samples are analyzed on a FACS Canto II (BD Biosciences, San Jose Calif.) using the BD FACS Diva software.

[4] = tested on: mitochondrial outer membrane permeabilization (MOMP); test: Mitochondrial profiling assay (MOMP); format: cell-based; conditions: mitochondrial profiling assay (unpublished data)
[5] = tested on: Bcl-2/Bcl-xL interactions with pro-death proteins (e.g., Bim); conditions: Tse et al., 2008; cited from earlier work

Sequence of Bcl-xL/Bim heterodimer in JEKO-1 cells (Q07817 whole entry, one chain of several): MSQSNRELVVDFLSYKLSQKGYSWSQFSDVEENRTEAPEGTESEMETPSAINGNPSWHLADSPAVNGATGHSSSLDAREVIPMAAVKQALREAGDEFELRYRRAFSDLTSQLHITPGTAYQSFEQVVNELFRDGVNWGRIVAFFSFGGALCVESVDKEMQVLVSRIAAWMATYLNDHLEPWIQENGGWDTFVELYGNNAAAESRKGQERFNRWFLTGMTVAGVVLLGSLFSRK
Sequence of Bcl-XL/BIM-BH3 heterodimer (Q07817 whole entry, the tested form may be a part, one chain of several): as the sequence (Q07817 whole entry, one chain of several) above
Sequence of Bcl-XL/BIM heterodimer in SKBR3 cells (Q07817 whole entry, one chain of several): as above

MOMP on displacement of Bim [4]: results in MOMP
SMILES: CC1(C)CCC(c2ccc(Cl)cc2)=C(CN2CCN(c3ccc(C(=O)NS(=O)(=O)c4ccc(N[C@H](CCN5CCOCC5)CSc5ccccc5)c(S(=O)(=O)C(F)(F)F)c4)cc3)CC2)C1 [ABT-263, Navitoclax]
inhibition of heterodimer antibody signal [1]: dose-dependent inhibition of heterodimer antibody signal
displacement of Bcl-xL bound BIM BH3 peptide detected by HSBXB [2]: displacement of the Bcl-xL bound BIM BH3 peptide is detected
displacement of Bim from Bcl-xL by flow cytometry using HSBXB antibody [3]: this displacement in measurable by flow cytometry
time to initiation of apoptosis post treatment [5]: ≤ 2 h
